# Test results published in PMC8963254, “Effects of Lysine N-ζ-Methylation in Ultrashort Tetrabasic Lipopeptides (UTBLPs) on the Potentiation of Rifampicin, Novobiocin, and Niclosamide in Gram-Negative Bacteria” (Antibiotics, 2022).
# Read-outs that look alike come from different tables or passages of the source. Non-standard residues stand in square brackets, D forms with d. Residues, ends and D or L forms follow the SMILES beside them. *: point of attachment. Lys(Me2) = CN(C)CCCC[C@H](N)C(=O)O; Octanoyl = CCCCCCCC(=O)*
# Experiments:
# S. aureus ATCC 29213 = format: cell-based, Staphylococcus aureus
# Outline: (§1)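 Values derive from a two-agent checkerboard with an 18 h, 37 °C incubation. FICI cut-offs: ≤0.5 synergy, 0.5–4 additive, >4 antagonism.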
# MRSA ATCC 33592 = format: cell-based, Staphylococcus aureus
# Outline: as §1
# E. coli 94474 = format: cell-based, Escherichia coli; details: for MICUTBLP: UTBLP alone
# Outline: as §1
# A. baumannii ATCC 17978 [1] = format: cell-based, Acinetobacter baumannii; details: for MICUTBLP: UTBLP alone
# Outline: as §1
# A. baumannii 92247 = format: cell-based, Acinetobacter baumannii; details: for MICUTBLP: UTBLP alone
# Outline: as §1
# A. baumannii AB027 [2] = format: cell-based, Acinetobacter baumannii; details: for MICUTBLP: UTBLP alone
# Outline: as §1
# A. baumannii AB92247 = test: microbe, parasite or virus in culture; format: cell-based, Acinetobacter baumannii; details: AB92247, 18 h
# Outline: (§2)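 Minimum inhibitory concentration came from a CLSI broth dilution assay: 18 h at 37 °C, inoculum 5 × 10^5 CFU/mL final.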
# A. baumannii AB027 [3] = test: microbe, parasite or virus in culture; format: cell-based, Acinetobacter baumannii; details: AB027, 18 h
# Outline: as §2
# K. pneumoniae 113250 = format: cell-based, Klebsiella pneumoniae; details: for MICUTBLP: UTBLP alone
# Outline: as §1
# E. faecalis ATCC 29212 = format: cell-based, Enterococcus faecalis; details: ATCC 29212, 18 h
# Outline: as §2
# E. cloacae 118564 = format: cell-based, Enterobacter cloacae; details: for MICUTBLP: UTBLP alone
# Outline: as §1
# E. faecium ATCC 27270 = format: cell-based, Enterococcus faecium; details: ATCC 27270, 18 h
# Outline: as §2
# [4] = test system: P. aeruginosa PA259-96196; format: cell-based, Pseudomonas aeruginosa; details: for MICUTBLP: UTBLP alone
# Outline: as §1
# [5] = test system: P. aeruginosa PA262-101856; format: cell-based, Pseudomonas aeruginosa; details: for MICUTBLP: UTBLP alone
# Outline: as §1
# P. aeruginosa PAO1 = format: cell-based, Pseudomonas aeruginosa; details: for MICUTBLP: UTBLP alone
# Outline: as §1
# A. baumannii ATCC 17978 [6] = format: cell-based, Acinetobacter baumannii; details: ATCC 17978, 18 h
# Outline: as §2
# [7] = UTBLP alone, plate with chloramphenicol
# [8] = UTBLP in combination with chloramphenicol
# [9] = chloramphenicol in combination with the UTBLP
# [10] = UTBLP in combination with novobiocin
# [11] = UTBLP in combination with rifampicin
# [12] = novobiocin in combination with the UTBLP
# [13] = rifampicin in combination with the UTBLP
# [14] = UTBLP in combination with niclosamide
# [15] = niclosamide in combination with the UTBLP
structure (smiles),measurement,setting,value
CCCCCCCC(=O)NCCCC[C@H](NC(=O)CCCCCCC)C(=O)N[C@@H](CCCCN(C)C)C(=O)N[C@@H](CCCCN(C)C)C(=O)N[C@@H](CCCCN(C)C)C(=O)N[C@@H](CCCCN(C)C)C(N)=O [UTBLP 7] (Octanoyl-K(Octanoyl)[Lys(Me2)][Lys(Me2)][Lys(Me2)][Lys(Me2)]-NH2),MICUTBLP,S. aureus ATCC 29213; [7],> 128 µg/mL
same,MICUTBLP [MICcombo],S. aureus ATCC 29213; [8],0.25 µg/mL
same,MICchloramphenicol [MICcombo],S. aureus ATCC 29213; [9],8 µg/mL
same,Interpretation,MRSA ATCC 33592; UTBLP + chloramphenicol,Additive (0.5 < x ≤ 4 is additive)
same,MICUTBLP,MRSA ATCC 33592; [7],> 128 µg/mL
same,MICUTBLP [MICcombo],MRSA ATCC 33592; [8],0.25 µg/mL
same,MICchloramphenicol [MICcombo],MRSA ATCC 33592; [9],64 µg/mL
same,Interpretation,E. coli 94474; UTBLP + novobiocin,Synergy (FICI ≤ 0.5 is synergistic)
same,Interpretation,E. coli 94474; UTBLP + rifampicin,Synergy (FICI ≤ 0.5 is synergistic)
same,MICUTBLP,E. coli 94474; plate with novobiocin,128 µg/mL
same,MICUTBLP,E. coli 94474; plate with rifampicin,128 µg/mL
same,MICUTBLP [MICcombo],E. coli 94474; [10],8 µg/mL
same,MICUTBLP [MICcombo],E. coli 94474; [11],16 µg/mL
same,MICantibiotic [MICcombo],E. coli 94474; [12],16 µg/mL
same,MICantibiotic [MICcombo],E. coli 94474; [13],1 µg/mL
same,Interpretation,A. baumannii ATCC 17978 [1]; UTBLP + chloramphenicol,Additive (0.5 < x ≤ 4 is additive)
same,Interpretation,A. baumannii ATCC 17978 [1]; UTBLP + niclosamide,Synergy (FICI ≤ 0.5 is synergistic)
same,Interpretation,A. baumannii ATCC 17978 [1]; UTBLP + novobiocin,Synergy (FICI ≤ 0.5 is synergistic)
same,Interpretation,A. baumannii ATCC 17978 [1]; UTBLP + rifampicin,Synergy (FICI ≤ 0.5 is synergistic)
same,MICUTBLP,A. baumannii ATCC 17978 [1]; plate with chloramphenicol,128 µg/mL
same,MICUTBLP,A. baumannii ATCC 17978 [1]; plate with niclosamide,128 µg/mL
same,MICUTBLP,A. baumannii ATCC 17978 [1]; plate with novobiocin,128 µg/mL
same,MICUTBLP,A. baumannii ATCC 17978 [1]; plate with rifampicin,128 µg/mL
same,MICUTBLP [MICcombo],A. baumannii ATCC 17978 [1]; [8],0.25 µg/mL
same,MICUTBLP [MICcombo],A. baumannii ATCC 17978 [1]; [14],4 µg/mL
same,MICUTBLP [MICcombo],A. baumannii ATCC 17978 [1]; [10],4 µg/mL
same,MICUTBLP [MICcombo],A. baumannii ATCC 17978 [1]; [11],4 µg/mL
same,MICantibiotic [MICcombo],A. baumannii ATCC 17978 [1]; [9],64 µg/mL
same,MICantibiotic [MICcombo],A. baumannii ATCC 17978 [1]; [15],4 µg/mL
same,MICantibiotic [MICcombo],A. baumannii ATCC 17978 [1]; [12],0.5 µg/mL
same,MICantibiotic [MICcombo],A. baumannii ATCC 17978 [1]; [13],0.125 µg/mL
same,Interpretation,A. baumannii 92247; UTBLP + novobiocin,Synergy (FICI ≤ 0.5 is synergistic)
same,Interpretation,A. baumannii 92247; UTBLP + rifampicin,Synergy (FICI ≤ 0.5 is synergistic)
same,MICUTBLP,A. baumannii 92247; plate with novobiocin,32 µg/mL
same,MICUTBLP,A. baumannii 92247; plate with rifampicin,32 µg/mL
same,MICUTBLP [MICcombo],A. baumannii 92247; [10],1 µg/mL
same,MICUTBLP [MICcombo],A. baumannii 92247; [11],8 µg/mL
same,MICantibiotic [MICcombo],A. baumannii 92247; [12],0.25 µg/mL
same,MICantibiotic [MICcombo],A. baumannii 92247; [13],0.125 µg/mL
same,Interpretation,A. baumannii AB027 [2]; UTBLP + novobiocin,Synergy (FICI ≤ 0.5 is synergistic)
same,Interpretation,A. baumannii AB027 [2]; UTBLP + rifampicin,Synergy (FICI ≤ 0.5 is synergistic)
same,MICUTBLP,A. baumannii AB027 [2]; plate with novobiocin,128 µg/mL
same,MICUTBLP,A. baumannii AB027 [2]; plate with rifampicin,128 µg/mL
same,MICUTBLP [MICcombo],A. baumannii AB027 [2]; [10],4 µg/mL
same,MICUTBLP [MICcombo],A. baumannii AB027 [2]; [11],8 µg/mL
same,MICantibiotic [MICcombo],A. baumannii AB027 [2]; [12],0.5 µg/mL
same,MICantibiotic [MICcombo],A. baumannii AB027 [2]; [13],0.063 µg/mL
same,MIC,A. baumannii AB92247,32 µg/mL
same,MIC,A. baumannii AB027 [3],128 µg/mL
same,Interpretation,K. pneumoniae 113250; UTBLP + novobiocin,Synergy (FICI ≤ 0.5 is synergistic)
same,Interpretation,K. pneumoniae 113250; UTBLP + rifampicin,Synergy (FICI ≤ 0.5 is synergistic)
same,MICUTBLP,K. pneumoniae 113250; plate with novobiocin,> 128 µg/mL
same,MICUTBLP,K. pneumoniae 113250; plate with rifampicin,> 128 µg/mL
same,MICUTBLP [MICcombo],K. pneumoniae 113250; [10],8 µg/mL
same,MICUTBLP [MICcombo],K. pneumoniae 113250; [11],16 µg/mL
same,MICantibiotic [MICcombo],K. pneumoniae 113250; [12],8 µg/mL
same,MICantibiotic [MICcombo],K. pneumoniae 113250; [13],2 µg/mL
same,MIC,E. faecalis ATCC 29212,64 µg/mL
same,Interpretation,E. cloacae 118564; UTBLP + novobiocin,Synergy (FICI ≤ 0.5 is synergistic)
same,Interpretation,E. cloacae 118564; UTBLP + rifampicin,Synergy (FICI ≤ 0.5 is synergistic)
same,MICUTBLP,E. cloacae 118564; plate with novobiocin,> 128 µg/mL
same,MICUTBLP,E. cloacae 118564; plate with rifampicin,> 128 µg/mL
same,MICUTBLP [MICcombo],E. cloacae 118564; [10],16 µg/mL
same,MICUTBLP [MICcombo],E. cloacae 118564; [11],16 µg/mL
same,MICantibiotic [MICcombo],E. cloacae 118564; [12],4 µg/mL
same,MICantibiotic [MICcombo],E. cloacae 118564; [13],1 µg/mL
same,MIC,E. faecium ATCC 27270,128 µg/mL
same,Interpretation,[4]; UTBLP + novobiocin,Additive (0.5 < x ≤ 4 is additive)
same,Interpretation,[4]; UTBLP + rifampicin,Additive (0.5 < x ≤ 4 is additive)
same,MICUTBLP,[4]; plate with novobiocin,> 128 µg/mL
same,MICUTBLP,[4]; plate with rifampicin,> 128 µg/mL
same,MICUTBLP [MICcombo],[4]; [10],16 µg/mL
same,MICUTBLP [MICcombo],[4]; [11],16 µg/mL
same,MICantibiotic [MICcombo],[4]; [12],512 µg/mL
same,MICantibiotic [MICcombo],[4]; [13],8 µg/mL
same,Interpretation,[5]; UTBLP + novobiocin,Additive (0.5 < x ≤ 4 is additive)
same,Interpretation,[5]; UTBLP + rifampicin,Additive (0.5 < x ≤ 4 is additive)
same,MICUTBLP,[5]; plate with novobiocin,> 128 µg/mL
same,MICUTBLP,[5]; plate with rifampicin,> 128 µg/mL
same,MICUTBLP [MICcombo],[5]; [10],16 µg/mL
same,MICUTBLP [MICcombo],[5]; [11],16 µg/mL
same,MICantibiotic [MICcombo],[5]; [12],512 µg/mL
same,MICantibiotic [MICcombo],[5]; [13],512 µg/mL
same,Interpretation,P. aeruginosa PAO1; UTBLP + chloramphenicol,Additive (0.5 < x ≤ 4 is additive)
same,Interpretation,P. aeruginosa PAO1; UTBLP + niclosamide,Additive (0.5 < x ≤ 4 is additive)
same,Interpretation,P. aeruginosa PAO1; UTBLP + novobiocin,Synergy (FICI ≤ 0.5 is synergistic)
same,Interpretation,P. aeruginosa PAO1; UTBLP + rifampicin,Additive (0.5 < x ≤ 4 is additive)
same,MICUTBLP,P. aeruginosa PAO1; plate with chloramphenicol,> 128 µg/mL
same,MICUTBLP,P. aeruginosa PAO1; plate with niclosamide,> 128 µg/mL
same,MICUTBLP,P. aeruginosa PAO1; plate with novobiocin,> 128 µg/mL
same,MICUTBLP,P. aeruginosa PAO1; plate with rifampicin,> 128 µg/mL
same,MICUTBLP [MICcombo],P. aeruginosa PAO1; [8],8 µg/mL
same,MICUTBLP [MICcombo],P. aeruginosa PAO1; [14],0.25 µg/mL
same,MICUTBLP [MICcombo],P. aeruginosa PAO1; [10],16 µg/mL
same,MICUTBLP [MICcombo],P. aeruginosa PAO1; [11],16 µg/mL
same,MICantibiotic [MICcombo],P. aeruginosa PAO1; [9],8 µg/mL
same,MICantibiotic [MICcombo],P. aeruginosa PAO1; [15],1024 µg/mL
same,MICantibiotic [MICcombo],P. aeruginosa PAO1; [12],128 µg/mL
same,MICantibiotic [MICcombo],P. aeruginosa PAO1; [13],4 µg/mL
same,MIC,A. baumannii ATCC 17978 [6],128 µg/mL
